From ChEMBL document CHEMBL4689842, “EUbOPEN Chemogenomics Library wave 1” (2021)

Legend:
[1] = system: Fibroblast; experiment: Incucyte cell viability with human fibroblast; format: toxicity, cell-based; details: 10 µM, compound concentration 10 uM
[2] = system: U2OS; experiment: Incucyte cell viability with U2OS; format: toxicity, cell-based; details: human, 10 µM, compound concentration 10 uM
[3] = 0 h, replicate number 1, timepoint 0 hours
[4] = 6 h, replicate number 2, timepoint 6 hours
[5] = 12 h, replicate number 1, timepoint 12 hours
[6] = 18 h, replicate number 1, timepoint 18 hours
[7] = 18 h, replicate number 2, timepoint 18 hours
[8] = 24 h, replicate number 1, timepoint 24 hours
[9] = 24 h, replicate number 2, timepoint 24 hours
[10] = 0 h, replicate number 2, timepoint 0 hours
[11] = 6 h, replicate number 1, timepoint 6 hours
[12] = 12 h, replicate number 2, timepoint 12 hours
Further: filed as whole numbers so only -1 and 0 and 1 occur.

Structure (SMILES)	Growth Rate [1, 3]	Growth Rate [1, 4]	Growth Rate [1, 5]	Growth Rate [1, 6]	Growth Rate [1, 7]	Growth Rate [1, 8]	Growth Rate [1, 9]	Growth Rate [2, 10]	Growth Rate [2, 11]	Growth Rate [2, 5]	Growth Rate [2, 6]	Growth Rate [2, 8]	Growth Rate [2, 9]	Growth Rate [1, 12]	Growth Rate [2, 3]	Growth Rate [2, 4]	Growth Rate [2, 12]	Growth Rate [2, 7]	Growth Rate [1, 11]	Growth Rate [1, 10]
C=CC(=O)Nc1ccc2[nH]c(=O)n(C3CCN(Cc4ccc(-c5nc6cc[nH]c(=O)c6cc5-c5ccccc5)cc4)CC3)c2c1 [Borussertib]	0	0	1	1	0	1	0	1	1	1	1	1	0	–	–	–	–	–	–	–
Cc1c[nH]c2nccc(Oc3c(F)cc(Nc4cc(Cl)nc(N)n4)cc3F)c12 [BAY-549]	0	–	0	0	–	0	–	0	0	0	0	0	–	1	–	–	–	–	–	–
Cc1cccc(CN2CCN(C(c3ccccc3)c3ccc(Cl)cc3)CC2)c1.Cl.Cl (stereo not given)	0	–	1	1	0	0	–	1	–	–	1	1	0	0	0	0	0	0	–	–
CC(C)OC(=O)N1CCC(Oc2ncnc3c2cnn3-c2ccc(S(C)(=O)=O)cc2F)CC1	0	0	1	1	0	0	–	–	–	1	1	1	0	0	0	0	0	0	1	–
Cc1ccc2c(c1)c1c(n2CCc2ccc(C)nc2)CCN(C)C1 [LATREPIRDINE]	0	0	0	0	–	0	–	–	–	1	0	1	0	–	0	0	–	–	1	–
C[C@]1(O)C[C@@H](c2nc(-c3ccc4ccc(-c5ccccc5)nc4c3)c3c(N)nccn32)C1 [LINSITINIB]	–	–	1	–	1	1	–	–	0	0	0	0	–	–	1	–	–	–	1	0
C=CC(=O)Nc1cccc(Sc2nc(Nc3ccc(N4CCN(C)CC4)cc3)ncc2Cl)c1	–	–	0	0	–	0	–	–	0	0	0	0	–	–	0	–	–	–	0	–
O=C(c1cc2c(cc1F)OC(c1ccc(F)cc1)(c1ccc(Cl)cc1Cl)O2)N1CCOCC1 (stereo not given)	0	–	–	1	0	1	0	–	–	0	0	0	–	0	0	1	–	–	–	–
C[C@]12CC[C@@H]3c4ccc(O)cc4CC[C@H]3[C@@H]1CC[C@@H]2O [ESTRADIOL]	0	–	0	0	–	0	–	0	0	0	0	0	–	–	–	–	–	–	0	–
COc1ccc(-c2ccc3ncc4c(c3c2)n(-c2ccc(N3CCNCC3)c(C(F)(F)F)c2)c(=O)n4C)cn1.O=C(O)/C=C\C(=O)O [BGT-226]	0	–	0	0	–	0	–	–	0	0	0	0	–	–	0	–	–	–	0	–
